In PubChem BioAssay AID248 (DTP/NCI, 2004):
Values joined by “and” are separate entries in the source; they are usually repeats but may differ in a detail not shown here. Equal entries are not always repeated. Inconclusive results and toxic doses are left out.

Tested on: L1210 leukemia ip in BDF1 mice, survival T/C
Assay: NCI In Vivo Anticancer Drug Screen. Data for tumor model L1210 Leukemia (intraperitoneal) in B6D2F1 (BDF1) mice
Conditions: endpoint: mean survival time, higher = longer survival
Summary of the method: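 Tumor was transplanted into mice, which were then dosed with test compound or vehicle alone. Survival was recorded for each group, and the treated figure was expressed relative to the control figure.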

[1] = dose: 100.0 mg/kg/injection, schedule: Q01DX009 (ip), vehicle: saline with Tween-80
[2] = dose: 100.0 mg/kg/injection, schedule: Q04DX002 (ip), vehicle: saline with Tween-80
[3] = dose: 200.0 mg/kg/injection, schedule: Q01DX009 (ip), vehicle: saline with Tween-80
[4] = dose: 400.0 mg/kg/injection, schedule: Q01DX009 (ip), vehicle: saline with Tween-80
[5] = dose: 100.0 mg/kg/injection, schedule: Q01DX009 (ip), vehicle: Klucel (hydroxypropylcellulose) (HPC)
[6] = dose: 200.0 mg/kg/injection, schedule: Q01DX009 (ip), vehicle: Klucel (hydroxypropylcellulose) (HPC)
[7] = dose: 100.0 mg/kg/injection, schedule: Q04DX003 (ip), vehicle: Klucel (hydroxypropylcellulose) (HPC)
[8] = dose: 200.0 mg/kg/injection, schedule: Q04DX003 (ip), vehicle: Klucel (hydroxypropylcellulose) (HPC)
[9] = dose: 400.0 mg/kg/injection, schedule: Q04DX003 (ip), vehicle: Klucel (hydroxypropylcellulose) (HPC)
[10] = dose: 100.0 mg/kg/injection, schedule: Q04DX003 (ip), vehicle: saline
[11] = dose: 200.0 mg/kg/injection, schedule: Q04DX003 (ip), vehicle: saline
[12] = dose: 400.0 mg/kg/injection, schedule: Q04DX003 (ip), vehicle: saline

Cc1c2oc3c(C)ccc(C(=O)OCCN4CCOCC4)c3nc-2c(C(=O)OCCN2CCOCC2)c(N)c1=O
T/C (dose: 100.0 mg/kg/injection, schedule: Q04DX002 (ip), vehicle: saline): 98 % of control
T/C (dose: 200.0 mg/kg/injection, schedule: Q04DX002 (ip), vehicle: saline): 103 % of control

COc1ccc(Cl)c(NC(=O)Nc2cc(Cl)ccc2C)c1
T/C [1]: 94 % of control and 95 % of control
T/C [2]: 98 % of control and 91 % of control
T/C [3]: 90 % of control
T/C (dose: 200.0 mg/kg/injection, schedule: Q04DX002 (ip), vehicle: saline with Tween-80): 95 % of control and 91 % of control
T/C [4]: 93 % of control
T/C (dose: 400.0 mg/kg/injection, schedule: Q04DX002 (ip), vehicle: saline with Tween-80): 87 % of control and 90 % of control

O=c1[nH]c2nc3ccccc3nc2c(=O)n1O
T/C [5]: 100 % of control
T/C [6]: 105 % of control

CC1=C(Cl)C(=O)C(Cl)=C(C)C1=O
T/C (dose: 5.5 mg/kg/injection, schedule: Q01DX Z (ip), vehicle: methylcellulose (MC)): 93 % of control
T/C (dose: 8.3 mg/kg/injection, schedule: Q01DX Z (ip), vehicle: methylcellulose (MC)): 107 % of control
T/C (dose: 12.5 mg/kg/injection, schedule: Q01DX Z (ip), vehicle: methylcellulose (MC)): 102 % of control

Cc1cc(Cl)ccc1NC(=O)c1ccc(Cl)c(Cl)c1
T/C [1]: 88 % of control
T/C (dose: 100.0 mg/kg/injection, schedule: Q04DX003 (ip), vehicle: saline with Tween-80): 100 % of control
T/C [3]: 93 % of control
T/C (dose: 200.0 mg/kg/injection, schedule: Q04DX003 (ip), vehicle: saline with Tween-80): 96 % of control
T/C [4]: 93 % of control
T/C (dose: 400.0 mg/kg/injection, schedule: Q04DX003 (ip), vehicle: saline with Tween-80): 94 % of control

c1ccc2c(c1)ccc1c3ccncc3ccc21
T/C (dose: 100.0 mg/kg/injection, schedule: Q01DX001 (ip), vehicle: saline): 101 % of control
T/C (dose: 200.0 mg/kg/injection, schedule: Q01DX001 (ip), vehicle: saline): 98 % of control
T/C (dose: 400.0 mg/kg/injection, schedule: Q01DX001 (ip), vehicle: saline): 98 % of control

Cc1ccc(N=Nc2cc(C)c(N)cc2N)c(S(=O)(=O)O)c1
T/C (dose: 100.0 mg/kg/injection, schedule: Q04DX003 (ip), vehicle: other): 96 % of control
T/C (dose: 200.0 mg/kg/injection, schedule: Q04DX003 (ip), vehicle: other): 105 % of control
T/C (dose: 400.0 mg/kg/injection, schedule: Q04DX003 (ip), vehicle: other): 103 % of control

O=C(O)COc1ccccc1OCC(=O)O
T/C [5]: 98 % of control
T/C [7]: 94 % of control
T/C [6]: 100 % of control
T/C [8]: 100 % of control
T/C [9]: 98 % of control

Cc1ccc(CSC(=N)N)cc1
T/C (dose: 100.0 mg/kg/injection, schedule: Q01DX001 (ip), vehicle: carboxymethylcellulose (CMC)): 104 % of control

CC(=O)Nc1c(Cl)cccc1Cl
T/C [7]: 95 % of control
T/C [8]: 108 % of control
T/C [9]: 110 % of control

CC(C)(C)c1cc(C#N)cc(Br)c1O
T/C (dose: 25.0 mg/kg/injection, schedule: Q04DX002 (ip), vehicle: saline with Tween-80): 102 % of control
T/C (dose: 50.0 mg/kg/injection, schedule: Q04DX002 (ip), vehicle: saline with Tween-80): 97 % of control
T/C [2]: 97 % of control and 102 % of control

CCN(CC)C(=O)Cn1ccc(NC(C)=O)nc1=O
T/C (dose: 100.0 mg/kg/injection, schedule: Q01DX009 (ip), vehicle: saline): 104 % of control
T/C [10]: 106 % of control
T/C (dose: 200.0 mg/kg/injection, schedule: Q01DX009 (ip), vehicle: saline): 98 % of control
T/C [11]: 113 % of control
T/C (dose: 400.0 mg/kg/injection, schedule: Q01DX009 (ip), vehicle: saline): 98 % of control
T/C [12]: 111 % of control

O=C(CNC(=O)NCc1ccccc1)N/N=C/c1cccc([N+](=O)[O-])c1
T/C (dose: 12.5 mg/kg/injection, schedule: Q01DX009 (ip), vehicle: saline with Tween-80): 91 % of control
T/C (dose: 25.0 mg/kg/injection, schedule: Q01DX009 (ip), vehicle: saline with Tween-80): 88 % of control
T/C (dose: 50.0 mg/kg/injection, schedule: Q01DX009 (ip), vehicle: saline with Tween-80): 92 % of control and 88 % of control

O=[N+]([O-])c1ccc(/C=C/c2ccccc2Cl)cc1
T/C [5]: 97 % of control
T/C [7]: 109 % of control
T/C [6]: 97 % of control
T/C [8]: 104 % of control
T/C (dose: 400.0 mg/kg/injection, schedule: Q01DX009 (ip), vehicle: Klucel (hydroxypropylcellulose) (HPC)): 101 % of control
T/C [9]: 107 % of control

CC(C(=O)c1ccc(Br)cc1)C(O)(C(F)(F)F)C(F)(F)F (stereo not drawn)
T/C (dose: 100.0 mg/kg/injection, schedule: Q01DX007 (ip), vehicle: saline with Tween-80): 102 % of control
T/C (dose: 200.0 mg/kg/injection, schedule: Q01DX007 (ip), vehicle: saline with Tween-80): 109 % of control
T/C (dose: 400.0 mg/kg/injection, schedule: Q01DX007 (ip), vehicle: saline with Tween-80): 101 % of control

CS(=O)c1ncc2cnccn12 (stereo not drawn)
T/C (dose: 25.0 mg/kg/injection, schedule: Q01DX009 (ip), vehicle: water): 100 % of control
T/C (dose: 25.0 mg/kg/injection, schedule: Q04DX003 (ip), vehicle: saline): 107 % of control
T/C (dose: 50.0 mg/kg/injection, schedule: Q01DX009 (ip), vehicle: water): 99 % of control
T/C (dose: 50.0 mg/kg/injection, schedule: Q04DX003 (ip), vehicle: saline): 113 % of control
T/C (dose: 100.0 mg/kg/injection, schedule: Q01DX009 (ip), vehicle: water): 102 % of control and 103 % of control
T/C [10]: 107 % of control
T/C (dose: 100.0 mg/kg/injection, schedule: Q04DX003 (ip), vehicle: water): 110 % of control
T/C (dose: 200.0 mg/kg/injection, schedule: Q01DX009 (ip), vehicle: water): 98 % of control

CCC[As](=O)(O)Cc1ccccc1C
T/C (dose: 0.78 mg/kg/injection, schedule: Q01DX009 (ip), vehicle: saline with Tween-80): 95 % of control
T/C (dose: 1.56 mg/kg/injection, schedule: Q01DX009 (ip), vehicle: saline with Tween-80): 97 % of control
T/C (dose: 1.56 mg/kg/injection, schedule: Q04DX003 (ip), vehicle: saline with Tween-80): 93 % of control
T/C (dose: 3.12 mg/kg/injection, schedule: Q01DX009 (ip), vehicle: saline with Tween-80): 97 % of control
T/C (dose: 3.12 mg/kg/injection, schedule: Q04DX002 (ip), vehicle: saline with Tween-80): 103 % of control
T/C (dose: 3.12 mg/kg/injection, schedule: Q04DX003 (ip), vehicle: saline with Tween-80): 97 % of control
T/C (dose: 6.25 mg/kg/injection, schedule: Q01DX001 (ip), vehicle: saline with Tween-80): 106 % of control
T/C (dose: 6.25 mg/kg/injection, schedule: Q01DX009 (ip), vehicle: saline with Tween-80): 101 % of control and 103 % of control
T/C (dose: 6.25 mg/kg/injection, schedule: Q04DX003 (ip), vehicle: saline with Tween-80): 95 % of control
T/C (dose: 12.5 mg/kg/injection, schedule: Q01DX001 (ip), vehicle: saline with Tween-80): 109 % of control
T/C (dose: 12.5 mg/kg/injection, schedule: Q04DX002 (ip), vehicle: saline with Tween-80): 90 % of control
T/C (dose: 12.5 mg/kg/injection, schedule: Q04DX003 (ip), vehicle: saline with Tween-80): 103 % of control

COc1ccc(C(=O)Nc2ccc(C3=NCCN3)cc2)cc1C(=O)Nc1ccc(C2=NCCN2)cc1
T/C (dose: 3.75 mg/kg/injection, schedule: Q01DX Z (ip), vehicle: saline): 101 % of control
T/C (dose: 7.5 mg/kg/injection, schedule: Q01DX Z (ip), vehicle: saline): 116 % of control
T/C (dose: 30.0 mg/kg/injection, schedule: Q01DX Z (ip), vehicle: saline): 181 % of control
T/C (dose: 60.0 mg/kg/injection, schedule: Q01DX Z (ip), vehicle: saline): 266 % of control
T/C (dose: 120.0 mg/kg/injection, schedule: Q01DX Z (ip), vehicle: saline): 110 % of control

CCOC(=O)C1(C)CCCCC1=O (stereo not drawn)
T/C (dose: 100.0 mg/kg/injection, schedule: Q01DX009 (ip), vehicle: saline sonified): 110 % of control
T/C (dose: 200.0 mg/kg/injection, schedule: Q01DX009 (ip), vehicle: saline sonified): 96 % of control
T/C (dose: 400.0 mg/kg/injection, schedule: Q01DX009 (ip), vehicle: saline sonified): 105 % of control

O=C(N/N=C/c1ccc2c(c1)CCC2)Nc1ccc([N+](=O)[O-])cc1[N+](=O)[O-]
T/C [10]: 91 % of control
T/C [11]: 98 % of control
T/C [12]: 101 % of control

NC1CCCN(Cc2ccccc2)C1 (stereo not drawn)
T/C (dose: 75.0 mg/kg/injection, schedule: Q04DX003 (ip), vehicle: saline): 104 % of control
T/C (dose: 150.0 mg/kg/injection, schedule: Q04DX003 (ip), vehicle: saline): 100 % of control
